Reference: patent publication US20250040548A1, “Herbicidal compositions comprising saflufenacil” (BASF SF, priority 2023, published 2025)

How the values were obtained:
[1] = test system: SORVU* (non-PPOi herbicide tolerant); assay: Post-emergence application in field trials (Examples 2 and 3); format: in vivo, Sorghum vulgare
Method: (§1) In the examples below, using the method of S. R. Colby (1967) “Calculating synergistic and antagonistic responses of herbicide combinations”, Weeds 15, p. 22ff., the value E, which is expected if the activity of the individual active compounds is only additive, was calculated.
(§2) [formula] • where • X=percent activity using active herbicide A at an application rate a; • Y=percent activity using active saflufenacil at an application rate b; • E=expected activity (in %) by A+B at application rates a+b.
(§3) If the value found experimentally is higher than the value E calculated according to Colby, a synergistic effect is present.
(§4) On field test sites, natural weed infestation or seeded weeds were treated post-emergence of the weeds.
(§5) For the post emergence treatment, the weedy plants were treated as indicated below. The herbicidal compositions were, together with the adjuvant(s) as indicated, suspended or emulsified in water (200 l/ha unless indicated otherwise) as distribution medium and sprayed with commercial flat fan nozzles.
(§6) In the following experiments, the herbicidal activity for the individual herbicidal compositions (solo and mixture applications) was assessed the indicated days after treatment (DAT). The assessments for the damage on undesired weeds caused by the composition was carried out using a scale from 0 to 100%, compared to the untreated control plants. Here, 0 means no damage and 100 means complete destruction of the plants.
as §5, with “I/ha” for “l/ha”

[2] = test system: BRADC; assay: Post-emergence application in greenhouse trials; format: in vivo, Brachiaria decumbens; conditions: growth stage 12, saflufenacil as commercial 342 g/l SC formulation
Method: as §1, §2, §3
The culture containers used were plastic pots containing loamy sand with approximately 3.0% of humus as substrate. The seeds of the test plants were sown separately for each species.
For the post-emergence treatment, the test plants were grown to a plant height of from 3 to 15 cm, depending on the plant habit, and only then treated with the active compounds which had been suspended or emulsified in water. To this end, the test plants were either sown directly, and grown in the same containers, or they were first grown separately as seedlings and transplanted into the test containers a few days prior to treatment.
Depending on the species, the plants were kept at 10-25° C. and 20-35° C., respectively.
The test period extended over 2 to 4 weeks. During this time, the plants were tended and their response to the individual treatments was evaluated.
Evaluation was carried out using a scale from 0 to 100. 100 means no emergence of the plants, or complete destruction of at least the above-ground parts, and 0 means no damage or normal course of growth. A good herbicidal activity is given at values of at least 70, and very good herbicidal activity is given at values of at least 85.
Unless indicated otherwise, herbicide A and saflufenacil were formulated (50 g/I) and applied with addition of 1% MSO (methylated seed oil) as adjuvant. In the greenhouse trials, the solvent used was water (200 I/ha).

[3] = test system: LAMAN; assay: Post-emergence application in field trials (Examples 2 and 3); format: in vivo, Lamium amplexicaule; conditions: height 3-18 cm, 21 DAT, 1% v/v MSO and 1% AMS (ammonium sulfate)
Method: as §1, §2, §3, §4, §5
as §6, with “Here, 0 means no damage and 100 means complete destruction of the plants.” left out

[4] = test system: ZEAMX* (non-PPOi herbicide tolerant); assay: as above; format: in vivo, Zea mays; conditions: 21 DAT
Method: as §1, §2, §3, §4, §5, §6
as §5, with “I/ha” for “l/ha”

Row | Structure (SMILES) | % Herbicidal activity ([1]; A-1 50 g ai/ha, 25 DAT, growth stage 14-15, field, 0.25 l/ha Dash MSO Max ®) [%] | % Herbicidal activity ([1]; SORVU* (non-PPOi herbicide tolerant), height 21-31 cm, A-1 solo 30 g ai/ha, 22 DAT, 1% v/v MSO) [%] | % Herbicidal activity ([2]; A-1 1.56 g ai/ha, 21 DAT) [%] | % Herbicidal activity ([2]; A-1 3.12 g ai/ha, 7 DAT) [%] | % Herbicidal activity ([2]; A-1 3.12 g ai/ha, 21 DAT) [%] | % Herbicidal activity ([3]; A-1 solo 25 g ai/ha) [%] | % Herbicidal activity ([4]; A-1 12.5 g ai/ha, growth stage 15, 1% v/v MSO and 1% w/v ammoniumsulfate) [%] | % Herbicidal activity ([4]; A-1 25 g ai/ha, growth stage 15, 1% v/v MSO and 1% w/v ammoniumsulfate) [%] | % Herbicidal activity ([4]; A-1 50 g ai/ha, growth stage 18, 0.5% MSO) [%] | % Herbicidal activity ([1]; B-1 25 g ai/ha, 25 DAT, growth stage 14-15, field, 0.25 l/ha Dash MSO Max ®) [%] | % Herbicidal activity ([1]; SORVU* (non-PPOi herbicide tolerant), height 21-31 cm, B-1 solo 25 g ai/ha, 22 DAT, 1% v/v MSO) [%] | % Herbicidal activity ([2]; B-1 3.12 g ai/ha, 7 DAT) [%] | % Herbicidal activity ([2]; B-1 3.12 g ai/ha, 21 DAT) [%] | % Herbicidal activity ([3]; B-1 solo 25 g ai/ha) [%] | % Herbicidal activity ([4]; B-1 25 g ai/ha, growth stage 15, 1% v/v MSO and 1% w/v ammoniumsulfate) [%] | % Herbicidal activity ([4]; B-1 25 g ai/ha, growth stage 18, 0.5% MSO) [%]
1 | CCOC(=O)COc1ccccc1Oc1nc(-n2c(=O)cc(C(F)(F)F)n(C)c2=O)c(F)cc1Cl [A-1, ethyl 2-[2-[[3-chloro-5-fluoro-6-[3-methyl-2,6-dioxo-4-(trifluoromethyl)pyrimidin-1-yl]-2-pyridyl]oxy]phenoxy]acetate] | 93 | 96 | 75 | 85 | 85 | 93 | 40 | 83 | 92 |  |  |  |  |  |  | 
2 | CC(C)N(C)S(=O)(=O)NC(=O)c1cc(-n2c(=O)cc(C(F)(F)F)n(C)c2=O)c(F)cc1Cl [B-1, saflufenacil] |  |  |  |  |  |  |  |  |  | 3 | 13 | 40 | 25 | 40 | 15 | 0
